Literature values as cited in patent US9428497B2, “Precursor compounds for the radiosynthesis of [18F] norchloro-fluorohomoepibatidine” (priority 2011, dated 2016).
Read-outs that look alike come from different tables or passages of the source.

Columns and labels:
[1] = mice; compared with 2-[18F]F-A-85380
[2] = piglets; compared with 2-[18F]F-A-85380

[18F]c1ccc(C2CC3CCCC2N3)cn1 (single isomer, unassigned; (-)) [(−)-[^18F]NCFHEB, (−)-[^18F]norchloro-fluoro-homoepibatidine]
cerebral uptake relative to 2-[18F]F-A-85380 [1]: more than two times higher
cerebral uptake relative to 2-[18F]F-A-85380 [2]: more than two times higher
